Test results published in ChEMBL document CHEMBL1139710, “Syntheses and studies of quinolone-cephalosporins as potential anti-tuberculosis agents” (Bioorg Med Chem Lett, 2006).
Values after ≈ are worked out from the molar mass of the structure shown.

What was measured:
Escherichia coli [1] = assay: Antibacterial activity against Escherichia coli DC0; assay type: functional, organism-based
Escherichia coli [2] = assay: Antibacterial activity against Escherichia coli DC2 permeability mutant; assay type: functional
Enterobacter cloacae = assay: Antibacterial activity against Enterobacter cloacae P99; assay type: functional
Micrococcus luteus = assay: Antibacterial activity against Micrococcus luteus ATCC 10240; assay type: functional
Pseudomonas aeruginosa [3] = assay: Antibacterial activity against Pseudomonas aeruginosa KW 799; assay type: functional
Pseudomonas aeruginosa [4] = assay: Antibacterial activity against Pseudomonas aeruginosa KW 799/ 61 permeability mutant; assay type: functional
Mycolicibacterium vaccae = assay: Antibacterial activity against Mycobacterium vaccae IMET10670; assay type: functional
[5] = tested on: Mycolicibacterium smegmatis; assay: Antibacterial activity against Mycobacterium smegmatis SG987; assay type: functional
Mycolicibacterium aurum [6] = assay: Antibacterial activity against Mycobacterium aurum SB66; assay type: functional
Mycolicibacterium aurum [7] = assay: Antibacterial activity against Mycobacterium aurum DSM 43436; assay type: functional
[8] = tested on: Mycolicibacterium fortuitum; assay: Antibacterial activity against Mycobacterium fortuitum B; assay type: functional
Staphylococcus aureus [9] = assay: Antibacterial activity against Staphylococcus aureus SG 511; assay type: functional
Staphylococcus aureus [10] = assay: Antibacterial activity against Staphylococcus aureus 134/93 MRSA; assay type: functional
Enterococcus faecalis = assay: Antibacterial activity against Enterococcus faecalis 1528 VRE; assay type: functional
[11] = tested on: Mycobacterium tuberculosis; assay: Antibacterial activity against Mycobacterium tuberculosis H37Rv by microplate alamar blue assay; assay type: functional
Vero = assay: Cytotoxicity against Vero cells; assay type: cell-based; settings: Chlorocebus sabaeus

Structure (SMILES) | MIC (Escherichia coli [1]) [µM] | MIC (Escherichia coli [2]) [µM] | MIC (Enterobacter cloacae) [µM] | MIC (Micrococcus luteus) [µM] | MIC (Pseudomonas aeruginosa [3]) [µM] | MIC (Pseudomonas aeruginosa [4]) [µM] | MIC (Mycolicibacterium vaccae) [µM] | MIC [5] [µM] | MIC (Mycolicibacterium aurum [6]) [µM] | MIC (Mycolicibacterium aurum [7]) [µM] | MIC [8] [µM] | MIC (Staphylococcus aureus [9]) [µM] | MIC (Staphylococcus aureus [10]) [µM] | MIC (Enterococcus faecalis) [µM] | MIC [11] [µM] | IC50 (Vero) [µM] | IC50 (Escherichia coli [1]) [µM]
O=C(Cc1ccccc1)N[C@@H]1C(=O)N2C(C(=O)OC(c3ccccc3)c3ccccc3)=C(CO)CS[C@H]12 | > 200 | 200 (≈ 103 µg/mL) | 200 (≈ 103 µg/mL) | 25 (≈ 12.9 µg/mL) | 100 (≈ 51.5 µg/mL) | 100 (≈ 51.5 µg/mL) | 200 (≈ 103 µg/mL) | 200 (≈ 103 µg/mL) | 50 (≈ 25.7 µg/mL) | 25 (≈ 12.9 µg/mL) | 200 (≈ 103 µg/mL) | 3.12 (≈ 1.61 µg/mL) | > 200 | 200 (≈ 103 µg/mL) | > 128 |  | 
COc1ccc(COC(=O)C2=C(CN3CCN(c4cc5c(cc4F)c(=O)c(C(=O)O)cn5C4CC4)CC3)CS[C@@H]3[C@H](NC(=O)Cc4ccccc4)C(=O)N23)cc1 | 25 (≈ 19.5 µg/mL) | 6.25 (≈ 4.89 µg/mL) | 0.4 (≈ 0.313 µg/mL) | 3.12 (≈ 2.44 µg/mL) | 12.5 (≈ 9.77 µg/mL) | 12.5 (≈ 9.77 µg/mL) | 3.12 (≈ 2.44 µg/mL) | 12.5 (≈ 9.77 µg/mL) | 0.8 (≈ 0.625 µg/mL) | 1.56 (≈ 1.22 µg/mL) | 12.5 (≈ 9.77 µg/mL) | 1.56 (≈ 1.22 µg/mL) | > 200 | 50 (≈ 39.1 µg/mL) | 62.3 (≈ 48.7 µg/mL) | 13.1 | 
O=C(Cc1ccccc1)N[C@@H]1C(=O)N2C(C(=O)O)=C(COC(=O)N3CCN(c4cc5c(cc4F)c(=O)c(C(=O)O)cn5C4CC4)CC3)CS[C@H]12 | 3.12 (≈ 2.2 µg/mL) | 0.8 (≈ 0.565 µg/mL) | 0.2 (≈ 0.141 µg/mL) | 0.2 (≈ 0.141 µg/mL) | 3.12 (≈ 2.2 µg/mL) | 3.12 (≈ 2.2 µg/mL) | 1.56 (≈ 1.1 µg/mL) | 3.12 (≈ 2.2 µg/mL) | 0.2 (≈ 0.141 µg/mL) | 0.2 (≈ 0.141 µg/mL) | 0.8 (≈ 0.565 µg/mL) | 0.4 (≈ 0.282 µg/mL) | 200 (≈ 141 µg/mL) | 6.25 (≈ 4.41 µg/mL) | 1.6 (≈ 1.13 µg/mL) | > 128 | 
O=C(Cc1ccccc1)N[C@@H]1C(=O)N2C(C(=O)OC(c3ccccc3)c3ccccc3)=C(COC(=O)N3CCN(c4cc5c(cc4F)c(=O)c(C(=O)O)cn5C4CC4)CC3)CS[C@H]12 |  | 0.2 (≈ 0.174 µg/mL) | < 0.1 | 12.5 (≈ 10.9 µg/mL) | 1.56 (≈ 1.36 µg/mL) | 1.56 (≈ 1.36 µg/mL) | 1.56 (≈ 1.36 µg/mL) | 1.56 (≈ 1.36 µg/mL) | 0.2 (≈ 0.174 µg/mL) | 0.2 (≈ 0.174 µg/mL) | 0.8 (≈ 0.698 µg/mL) | 0.2 (≈ 0.174 µg/mL) | 100 (≈ 87.2 µg/mL) | 3.12 (≈ 2.72 µg/mL) | 8 (≈ 6.98 µg/mL) | > 128 | 1.56
O=C(Cc1ccccc1)N[C@@H]1C(=O)N2C(C(=O)O)=C(CN3CCN(c4cc5c(cc4F)c(=O)c(C(=O)O)cn5C4CC4)CC3)CS[C@H]12 | 3.12 (≈ 2.06 µg/mL) | 0.8 (≈ 0.529 µg/mL) | 0.1 (≈ 0.0662 µg/mL) | 0.4 (≈ 0.265 µg/mL) | 1.56 (≈ 1.03 µg/mL) | 1.56 (≈ 1.03 µg/mL) | 3.12 (≈ 2.06 µg/mL) | 3.12 (≈ 2.06 µg/mL) | 0.4 (≈ 0.265 µg/mL) | 0.4 (≈ 0.265 µg/mL) | 3.12 (≈ 2.06 µg/mL) | 1.56 (≈ 1.03 µg/mL) | 200 (≈ 132 µg/mL) | 12.5 (≈ 8.27 µg/mL) | 3.8 (≈ 2.51 µg/mL) | > 128 | 
COc1ccc(COC(=O)C2=C(CI)CS[C@@H]3[C@H](NC(=O)Cc4ccccc4)C(=O)N23)cc1 | 200 (≈ 116 µg/mL) | 200 (≈ 116 µg/mL) | 100 (≈ 57.8 µg/mL) | 100 (≈ 57.8 µg/mL) | 100 (≈ 57.8 µg/mL) | 100 (≈ 57.8 µg/mL) | 100 (≈ 57.8 µg/mL) | > 200 | 100 (≈ 57.8 µg/mL) | 50 (≈ 28.9 µg/mL) | 200 (≈ 116 µg/mL) | 6.25 (≈ 3.62 µg/mL) | > 200 | 200 (≈ 116 µg/mL) | > 128 |  | 
COc1ccc(COC(=O)C2=C(CCl)CS[C@@H]3[C@H](NC(=O)Cc4ccccc4)C(=O)N23)cc1 | 200 (≈ 97.4 µg/mL) |  |  | 50 (≈ 24.3 µg/mL) | 100 (≈ 48.7 µg/mL) | 50 (≈ 24.3 µg/mL) | 100 (≈ 48.7 µg/mL) |  |  |  | 100 (≈ 48.7 µg/mL) | 1.56 (≈ 0.76 µg/mL) |  |  | 31.5 (≈ 15.3 µg/mL) |  | 
O=C(O)c1cn(C2CC2)c2cc(N3CCNCC3)c(F)cc2c1=O [CIPROFLOXACIN] | 0.4 (≈ 0.133 µg/mL) | < 0.1 |  | 25 (≈ 8.28 µg/mL) | 0.8 (≈ 0.265 µg/mL) | 0.4 (≈ 0.133 µg/mL) | 0.8 (≈ 0.265 µg/mL) | 0.8 (≈ 0.265 µg/mL) | 0.1 (≈ 0.0331 µg/mL) | 0.1 (≈ 0.0331 µg/mL) | 0.2 (≈ 0.0663 µg/mL) | 0.8 (≈ 0.265 µg/mL) | 50 (≈ 16.6 µg/mL) | 1.56 (≈ 0.517 µg/mL) | 1.8 (≈ 0.596 µg/mL) |  | 
